Laboratory results published in US20210299111A1, “EIF4A INHIBITOR COMBINATIONS” (eFFECTOR Therapeutics Inc., priority 2020, published 2021).

How the values were obtained:
[1] = test system: cyclin D1; test: Expression of cyclin D1 in MDA-MB-361 ER+ breast cancer cells treated with eFT226; format: cell-based; conditions: MDA-MB-361 cells, 24 hours, FIG. 1
Procedure: (§1) The effect of eFT226 on key cell cycle regulators in MDA-MB-361 ER^+ breast cancer cells was tested. MDA-MB-361 ER^+ breast cancer cells were treated with varying concentrations of eFT226 (10 nM, 30 nM, and 100 nM) for 24 hours, and analyzed for the expression of the relevant key cell cycle regulators, cyclin D1, CDK4, and phosphorylated retinoblastoma (Rb) protein.

[2] = test system: CDK4; test: Expression of CDK4 in MDA-MB-361 ER+ breast cancer cells treated with eFT226; format: cell-based; conditions: MDA-MB-361 cells; eFT226 10 nM, 30 nM, 100 nM; 24 hours; FIG. 1
Procedure: as §1

[3] = test system: phosphorylated retinoblastoma (Rb) protein; test: Phosphorylated Rb protein in MDA-MB-361 ER+ breast cancer cells treated with eFT226; format: cell-based; conditions: MDA-MB-361 cells; eFT226 10 nM, 30 nM, 100 nM; 24 hours; FIG. 1
Procedure: as §1

[4] = test system: MDA-MB-361 ER^+ breast cancer cells; test: Cell viability of MDA-MB-361 cells, single agents and combination; format: cell-based; conditions: Palbociclib 40 nM, eFT226 45 nM, 24 hours, then Palbociclib only for 6 days, versus untreated control, FIG. 2
Procedure: MDA-MB-361 ER^+ breast cancer cells were seeded at 10,000 cells/well in 24-well plates and treated with DMSO (“control”), Palbociclib (40 nM)(“Palbo”), eFT226 (45 nM) (“eFT226”), or the combination of the two drugs (“Combo”). After 24 hours of treatment, cells were rinsed and treatment with Palbociclib only was continued for 6 days, at which time cell viability was determined. Cells were counted on day 0 and day 6, when the experiment was ended.

[5] = test system: MDA-MB-361 ER^+ breast cancer cells; test: MDA-MB-361 xenograft tumor growth in athymic mice; format: in vivo; conditions: eFT226 0.1 mg/kg intravenously Q4D, palbociclib 30 mg/kg orally QD, 18 days, tumor volume followed up to 45 days after last dose, FIG. 3
Procedure: The in vivo effect of a combination treatment using eFT226 and palbociclib on the tumor growth of MDA-MB-361 ER^+ breast cancer cells was tested. Xenograft experiments were performed by implanting MDA-MB-361 ER^+ breast cancer cells into athymic mice. Athymic mice implanted with MDA-MB-361 tumor cells were randomized and size-matched into vehicle and treatment groups when the mean tumor size reached ˜300 mm^3. The mice were then treated with (1) control vehicle; (2) 0.1 mg/kg of eFT226 administered intravenously every 4 days (Q4D) for a period of 18 days; (3) 30 mg/kg of palbociclib administered orally every day (QD) for a period of 18 days; or (4) 0.1 mg/kg of eFT226 administered intravenously Q4D and 30 mg/kg of palbociclib administered orally QD for a period of 18 days. The effect on the above treatments on tumor volume was monitored. Tumor volume was measured periodically for up to 45 days after the last dose of treatment was administered. […] Administration of either eFT226 or palbociclib alone led to a inhibition of tumor growth for about 22 days after the treatment was stopped. […] It is unknown what factors determine the equilibrium between the CDK4/6 inhibitor-sensitive monomeric CDK4 and the drug resistant p27-CDK4-cyclin D1 trimer.

[6] = test system: SW620 (KRAS G12V) colorectal cancer cells; test: Cell viability (crystal violet) in KRAS mutant SW620 cells; format: cell-based; conditions: Palbociclib 100 nM, eFT226 10 or 50 nM, 24 hours, then Palbociclib alone for 13 days, FIG. 4
Procedure: (§2) SW620 (KRAS G12V) colorectal cancer cells (FIG. 1), DLD1 (KRAS G13D) colorectal cancer cells (FIG. 2), and CORL23 (KRAS G12V) NSCLC cells (FIG. 3) were seeded at 500-1,000 cells/well in 6-well plates and treated with DMSO control (“DMSO”), Palbociclib (100 nM) (“Palbo”), eFT226 (10 or 50 nM), or the combination of the two drugs (“Palbo+eFT226). After 24 hours of treatment, cells were rinsed and treatment with Palbociclib alone was continued for an additional 13 days. At the end of treatment, cells were rinsed with phosphate buffered saline (PBS) and stained with crystal violet.

[7] = test system: DLD1 (KRAS G13D) colorectal cancer cells; test: Cell viability (crystal violet) in KRAS mutant DLD1 cells; format: cell-based; conditions: Palbociclib 100 nM, eFT226 10 or 50 nM, 24 hours, then Palbociclib alone for 13 days, FIG. 5
Procedure: as §2

[8] = test system: CORL23 (KRAS G12V) NSCLC cells; test: Cell viability (crystal violet) in KRAS mutant CORL23 cells; format: cell-based; conditions: Palbociclib 100 nM, eFT226 10 or 50 nM, 24 hours, then Palbociclib alone for 13 days, FIG. 6
Procedure: as §2

Row | Compound | decrease of Cyclin D1 protein levels compared with Fulvestrant [1] | cyclin D1 expression ([1]; eFT226 10 nM, 30 nM, 100 nM) | CDK4 expression [2] | phosphorylated Rb protein [3] | cell viability [4] | duration of inhibition of tumor growth after the last dose [5] | cell viability [6] | cell viability [7] | cell viability [8]
1 | COc1cc2c(c(OC)n1)[C@]1(O)[C@H](O)[C@H](CN(C)C)[C@@H](c3ccccc3)[C@]1(c1ccc(C#N)cc1)O2 [eFT226] | more effective than Fulvestrant (Fulv) in decreasing Cyclin D1 protein levels | suppression of cyclin D1 and CDK4 expression was observed in the cell line at all concentrations | suppression of cyclin D1 and CDK4 expression was observed in the cell line at all concentrations | concomitant decrease in phosphorylated Rb protein | reduced | about 22 days | reduced | reduced | reduced
2 | CC(=O)c1c(C)c2cnc(Nc3ccc(N4CCNCC4)cn3)nc2n(C2CCCC2)c1=O [palbociclib, reference compound] |  |  |  |  |  | about 22 days |  |  | 
